{"source": "patent US10941187B2", "about": "(The United States of America, as represented by the …, priority 2001, dated 2021)", "key": {"RIN 1048-36 cells": {"tested_on": "RIN 1048-36 cells", "experiment": "Insulin secretion in vitro in RIN 1048-36 cells", "format": "cell-based, rat", "details": "peptide 1×10−8 M, 5 mM glucose, 1 h; compared with GLP-1 and exendin-4", "quoted_text": "Thereafter, they were preincubated for 2 periods of 30 min each with glucose-free buffer (containing mM: 140 NaCl, 5 KCl, 1 NaPO4, 1 MgSO4, 2 CaCl, 20 HEPES buffer (pH 7.4), and 0.1% bovine serum albumin) in a 37° C. humidified incubator. […] After 1 h the medium was removed and stored at −80° C. prior to quantification of insulin levels by EIA (Crystal Chem, Chicago Ill.), and the cells were lysed with HCl (300 μl, 0.1 M, 20 min, RT) for measurement of total protein using the Bradford method (Bio-Rad, Richmond, Calif.) with bovine γ-globulin as a standard."}, "[1]": {"tested_on": "fasted, diabetic Zucker rats", "experiment": "Duration of in vivo insulinotropic action after intraperitoneal peptide", "parameters": "species or system rat", "details": "0.4 nmol/kg i.p.", "quoted_text": "The time-dependent duration of insulinotropic action was evaluated by quantifying plasma insulin and glucose levels in Zucker rats following intraperitoneal (i.p.) peptide administration. Specifically, after overnight fasting, diabetic male rats, approximately 400 g weight, were anesthetized with 50 mg/kg pentobarbital and a catheter was tied into their right femoral artery for blood collection. […] Blood, taken prior to peptide administration, at 30 and 60 min, and at 2, 4, 6 and 24 h, was drawn into heparinized tubes containing EDTA and aprotinin for insulin determination, and a separate sample was taken to measure glucose. Plasma was separated, removed and immediately frozen to −70° C. Thereafter insulin levels were quantified by using a rat insulin ELISA kit (Crystal Chem Inc., Chicago, Ill.) and plasma glucose was quantified by the glucose oxidase method."}, "[2]": {"tested_on": "Zucker fatty (fa/fa) and Wistar rats", "experiment": "Blood glucose and insulin after subcutaneous injection", "format": "in vivo, rat", "details": "24 nmol/kg s.c.", "quoted_text": "Six-month old male Zucker fa/fa rats (Harlan, Indianapolis, Ind.) and six-month old Wistar rats were used in this study. They were allowed ad libitum access to chow and water and were on a 12 h light, 12 h dark cycle (lights on 0700 h). The bedding for the Zucker rats was a paper based product, “Carefresh” (Absorption Co., Belingham, Wash.). The Zucker rats were fasted on wire, in the absence of bedding, overnight before the experiment. Wistar rats were fasted on their normal bedding. General anaesthesia was induced by an intraperitoneal injection of pentobarbital (50 mg/kg)."}, "PC12 cells [3]": {"tested_on": "PC12 cells", "experiment": "Inhibition of GLP-1, exendin-4 and NGF induced neurite outgrowth in PC12 cells", "format": "cell-based, rat", "details": "48 h; PD98059 50 μM, LY294002 40 μM, H89 20 μM, or exendin (9-39) with exendin-4", "method": "NGF at 50 ng/ml and forskolin (PKA activator) (20 μM) were used as positive controls in these treatments."}, "Aβ1-40 [4]": {"tested_on": "Aβ1-40", "experiment": "Aβ1-40 sandwich ELISA of PC12 conditioned media", "format": "cell-based, rat", "details": "PC12 cells, relative to control cells"}, "PC12 cells [5]": {"tested_on": "PC12 cells", "experiment": "Neurite outgrowth in PC12 cells", "format": "cell-based, rat", "details": "day 3", "method": "Three dishes for each treatment condition were prepared. Treatments began 24 hours after seeding, once cells were well attached.\nPC12 cells were grown on 60 mm dishes as above and cultured for four days. During this time neurite outgrowth was quantified daily. Five random fields of cells were evaluated per dish and the proportion of neurite-bearing cells was determined. Approximately 100 cells per field were scored for neurites equal to or greater in length than that of the cell body. A cell was only scored once, although it may have had more than one process per cell."}, "synaptophysin": {"tested_on": "synaptophysin", "experiment": "Synaptophysin expression in PC12 cells (Western blot)", "format": "cell-based, rat", "details": "PC12 cell lysates", "method": "The synaptophysin monoclonal antibody (Oncogene Research Products, San Diego Calif.), which stains neurosecretory vesicles of PC12 cells, was used. The membranes were blocked with 20 mM Tris, 500 mM NaCl pH 7.4, 1% (w/v) casein (BioRad, San Diego Calif.) at 37° C. for 1 hour. Primary antibody was diluted in block and incubated with the proteins overnight at 4° C. The membrane was vigorously washed with 20 mM Tris pH 7.4, 150 mM NaCl and 0.05% Tween-20 (TBST), three times for 15 minutes at room temperature. The peroxidase-linked secondary antibody in block was incubated with the membrane for 2 hours at room temperature. Peroxidase-linked anti-mouse IgM (Chemicon, Tenecula, Calif.) was used as the secondary antibody against synaptophysin. Excess antibody was washed off with three vigorous washes in TBST prior to incubation in ECL Plus (Amersham, Philadelphia, Pa.) for 5 minutes. The membrane was subsequently exposed to photographic film."}, "Aβ1-40 [6]": {"tested_on": "Aβ1-40", "experiment": "Aβ1-40 in whole brain homogenates after i.c.v. infusion in control mice", "format": "in vivo, mouse", "details": "2 μg NGF i.c.v., 48 h, p<0.01", "method": "Lean db+/db+ control male mice (n=24) were anaesthetized with 50 mg/kg pentobarbitone and placed in a stereotaxic surgical frame with mouse adaptor (David Kopf Instruments, Tujunga, Calif.) using temporal bone cup holders. […] After 48 h all animals were sacrificed by cervical dislocation, the brains removed and rapidly frozen in liquid nitrogen. Brains were pulverized and stored at −80° C. prior to assaying for Aβ levels.\nEquivalent volumes of conditioned media and whole brain homogenate were assayed for Aβ1-40 using a sandwich ELISA (Suzuki et. al., 1994). The monoclonal antibody BAN50 (raised against Aβ1-16) was used as the capture antibody for all species of Aβ (Aβ1-40 and Aβ1-42), and the monoclonal antibody BA27 was used to specifically detect Aβ1-40 levels. Levels of Aβ1-40 were expressed in pM concentrations for conditioned media samples and finol/g for the mouse brain homogenates, as deduced from the appropriate standard curve run in parallel with the assay."}, "PC12 cells [7]": {"tested_on": "PC12 cells", "experiment": "Bromodeoxyuridine incorporation in PC12 cells", "details": "day 1; GLP-1 33 μg/ml, NGF 50 ng/ml", "quoted_text": "Immunocytochemistry with an anti-BrdU antibody after labeling was used to identify cells that were actively replicating DNA at the time of labeling. […] 10 μM BrdU was added to the culture medium for 6 hours prior to fixing in 4% paraformaldehyde, to label cellular DNA. The remainder of the method was followed according to the proliferation kit (Roche, Indianapolis, Ind.). […] BrdU incorporation was quantitated on days 1, 2 and 3 of treatment. Three dishes for each treatment condition were counted and expressed as the percentage of labeled cells relative to the total number of cells."}, "[8]": {"tested_on": "β-amyloid precursor protein (βAPP)", "experiment": "Western immunoblot of βAPP (cell lysates) and sAPP (conditioned media) in PC12 cells", "details": "day 3, relative to untreated"}}, "note": "Entries after “also recorded” stand apart in the source; their conditions may differ. Ends that are not written are not given here.", "data": [{"compound": "CC[C@H](C)[C@H](NC(=O)[C@H](Cc1ccccc1)NC(=O)[C@H](CCC(=O)O)NC(=O)[C@H](CCCCN)NC(=O)[C@H](C)NC(=O)[C@H](C)NC(=O)[C@H](CCC(N)=O)NC(=O)CNC(=O)[C@H](CCC(=O)O)NC(=O)[C@H](CC(C)C)NC(=O)[C@H](Cc1ccc(O)cc1)NC(=O)[C@H](CO)NC(=O)[C@H](CO)NC(=O)[C@@H](NC(=O)[C@H](CC(=O)O)NC(=O)[C@H](CO)NC(=O)[C@@H](NC(=O)[C@H](Cc1ccccc1)NC(=O)[C@@H](NC(=O)CNC(=O)[C@H](CCC(=O)O)NC(=O)CNC(=O)[C@@H](N)Cc1c[nH]cn1)[C@@H](C)O)[C@@H](C)O)C(C)C)C(=O)N[C@@H](C)C(=O)N[C@@H](Cc1c[nH]c2ccccc12)C(=O)N[C@@H](CC(C)C)C(=O)N[C@H](C(=O)N[C@@H](CCCCN)C(=O)NCC(=O)N[C@@H](CCCNC(=N)N)C(N)=O)C(C)C", "note": "[GLP-1 Gly^8]", "values": [{"measurement": "induction of insulin secretion", "setting": "RIN 1048-36 cells", "result": "induced insulin secretion slightly more than exendin-4"}, {"measurement": "potency on plasma insulin versus equimolar standard", "setting": "[1]", "result": "more potent than equimolar GLP-1"}, {"measurement": "hypoglycemia in Zucker rats", "setting": "[2]; fasted Zucker fatty rats", "result": "drop in blood glucose into the hypoglycemic range"}, {"measurement": "blood glucose", "setting": "[2]; fasted rats, monitored 8 h", "result": "rapidly lowered blood glucose"}]}, {"compound": "O=S(=O)(NCCNC/C=C/c1ccc(Br)cc1)c1cccc2cnccc12", "note": "[H89]", "values": [{"measurement": "effect on GLP-1, exendin-4 or NGF induced neurite outgrowth", "setting": "PC12 cells [3]", "result": "some inhibitory effects on GLP-1 and NGF-induced neurite outgrowth"}]}, {"compound": "COc1cccc(-c2cc(=O)c3ccccc3o2)c1N", "note": "[PD98059]", "values": [{"measurement": "effect on GLP-1, exendin-4 or NGF induced neurite outgrowth", "setting": "PC12 cells [3]", "result": "reduced GLP-1 and exendin-4 induced neurite outgrowth"}]}, {"compound": "exendin (9-39)", "values": [{"measurement": "effect on GLP-1, exendin-4 or NGF induced neurite outgrowth", "setting": "PC12 cells [3]", "result": "failed to initiate neurite extension"}]}, {"compound": "nerve growth factor [NGF]", "values": [{"measurement": "Aβ1-40 levels in conditioned media", "setting": "Aβ1-40 [4]", "result": "significant increases in Aβ1-40 levels"}, {"measurement": "increase in neurite projections from controls", "setting": "PC12 cells [5]; NGF 10 ng/ml", "result": 550, "unit": "%"}, {"measurement": "increase in neurite projections from controls", "setting": "PC12 cells [5]; NGF 30 ng/ml", "result": 720, "unit": "%"}, {"measurement": "maximal decrease in synaptophysin expression relative to control cells", "setting": "synaptophysin", "result": "approximately 70%"}, {"measurement": "synaptophysin expression", "setting": "synaptophysin; relative to untreated", "result": "dramatically reduced the expression of the synaptophysin protein"}, {"measurement": "reduction of Aβ1-40 levels compared to vehicle", "setting": "Aβ1-40 [6]", "result": 40, "unit": "%"}, {"measurement": "increased incorporation of BrdU relative to untreated", "setting": "PC12 cells [7]", "result": 9, "unit": "%"}, {"measurement": "intracellular levels of βAPP (cell lysates)", "setting": "[8]", "result": "dramatic increases in intracellular levels of βAPP"}]}, {"compound": "peptide 8: GLP-1 with A to G substitution at position 8 and V to L at position 16 (SEQ ID NO:5) (HGEGTFTSDLSSYLEGQAAKEFIAWLVKGR)", "values": [{"measurement": "induction of insulin secretion", "setting": "RIN 1048-36 cells", "result": "retained the ability to induce insulin secretion; also recorded: substantially greater effect on insulin secretion than either GLP-1 or exendin-4"}]}, {"compound": "peptide 9: GLP-1 with A/G, V/L, S/K, Y/Q, L/M substitutions at position 8, 16, 18, 19, 20 (SEQ ID NO: 6) (HGEGTFTSDLSKQMEGQAAKEFIAWLVKGR)", "values": [{"measurement": "induction of insulin secretion", "setting": "RIN 1048-36 cells", "result": "retained the ability to induce insulin secretion; also recorded: restores activity"}]}, {"compound": "peptide 15: truncation of exendin-4 including residues up to and including residue 43 (SEQ ID NO:12)", "values": [{"measurement": "induction of insulin secretion", "setting": "RIN 1048-36 cells", "result": "inducing effect that exceeded that of exendin-4 or GLP-1"}]}, {"compound": "peptide 30: peptide 1 with neutral serine replaced by basic lysine in position 18 (SEQ ID NO:27) (HGEGTFTSDVSKYLEGQAAKEFIAWLVKGR)", "values": [{"measurement": "induction of insulin secretion", "setting": "RIN 1048-36 cells", "result": "loss of activity"}]}, {"compound": "peptide 36: exendin-4 with arginine in position 36 and position 30 modified from glutamic acid to alanine (SEQ ID NO:33) (HGEGTFTSDLSKQMEEEAVREFIAWLKNGR; not fully specified)", "values": [{"measurement": "induction of insulin secretion", "setting": "RIN 1048-36 cells", "result": "well tolerated"}]}]}
